Patent US20220055989A1, “CONDENSED PYRROLES AS NOVEL BROMODOMAIN INHIBITORS” (ALBERT LUDWING UNIVERSITÄT FREIBURG, priority 2018, published 2022)

What was measured:
Format in all cases: binding
BRD2(1) = target: T1, BRD2(1) (Homo sapiens, UniProt P25440); experiment: BROMOscan Kd determination BRD2(1)
T1 construct: T7 phage strains displaying bromodomains were grown in parallel; made in house; host or cells: T7 phage grown in an E. coli host derived from the BL21 strain
Procedure: (§1) Bromodomain profiling was carried out on the basis of BROMOscan™. This platform accounted for the indirect determination of the dissociation constants between 19 bromodomains and the compound of formula (13), by binding competition against a reference immobilized ligand. Compounds that bind the bromodomain prevent its binding to the immobilized ligand thus reducing the amount of protein captured. […] Hits are identified by measuring the amount of bromodomain captured in test versus control samples. Bromodomain assays for Kd determination: T7 phage strains displaying bromodomains were grown in parallel in 24-well blocks in an E. coli host derived from the BL21 strain. E. coli were grown to log-phase and infected with T7 phage from a frozen stock (multiplicity of infection=0.4) and incubated with shaking at 32° C. until lysis (90-150 minutes). The lysates were centrifuged (5,000×g) and filtered (0.2 μm) to remove cell debris. […] Kds were determined using an 11-point 3-fold compound dilution series with one DMSO control point. […] The bromodomain concentration in the eluates was measured by qPCR. […] Most Kds were determined using a compound top concentration=10,000 nM. […] Binding Constants (Kds): Binding constants (Kds) were calculated with a standard dose-response curve using the Hill equation: The Hill Slope was set to −1. […]

BRD2(2) = target: T2, BRD2(2) (Homo sapiens, UniProt P25440); experiment: BROMOscan Kd determination BRD2(2)
T2 construct: T7 phage strains displaying bromodomains were grown in parallel; made in house; host or cells: T7 phage grown in an E. coli host derived from the BL21 strain
T2 sequence (P25440 344-453 limits assumed): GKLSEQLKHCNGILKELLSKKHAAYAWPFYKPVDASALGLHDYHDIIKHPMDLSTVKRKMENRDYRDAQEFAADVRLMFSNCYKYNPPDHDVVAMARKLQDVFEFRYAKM
Procedure: as §1

BRD3(1) = target: T3, BRD3(1) (Homo sapiens, UniProt Q15059); experiment: BROMOscan Kd determination BRD3(1)
T3 construct: T7 phage strains displaying bromodomains were grown in parallel; made in house; host or cells: T7 phage grown in an E. coli host derived from the BL21 strain
T3 sequence (Q15059 34-140 limits assumed): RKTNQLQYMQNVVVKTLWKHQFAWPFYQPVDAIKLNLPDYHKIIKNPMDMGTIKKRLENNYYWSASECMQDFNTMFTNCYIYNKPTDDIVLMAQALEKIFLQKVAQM
Procedure: as §1

BRD3(2) = target: T4, BRD3(2) (Homo sapiens, UniProt Q15059); experiment: BROMOscan Kd determination BRD3(2)
T4 construct: T7 phage strains displaying bromodomains were grown in parallel; made in house; host or cells: T7 phage grown in an E. coli host derived from the BL21 strain
T4 sequence (Q15059 306-415 limits assumed): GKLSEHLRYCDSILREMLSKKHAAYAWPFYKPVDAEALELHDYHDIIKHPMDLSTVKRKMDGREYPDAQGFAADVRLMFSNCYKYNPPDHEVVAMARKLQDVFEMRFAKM
Procedure: as §1

bromodomains = experiment: Bromodomain profiling (BROMOscan), summary over the panel; conditions: compared to the compound of formula (23); bromodomains of Table 3
Procedure: Bromodomain profiling was carried out on the basis of BROMOscan™. This platform accounted for the indirect determination of the dissociation constants between 19 bromodomains and the compound of formula (13), by binding competition against a reference immobilized ligand.
Compounds that bind the bromodomain prevent its binding to the immobilized ligand thus reducing the amount of protein captured. […] Hits are identified by measuring the amount of bromodomain captured in test versus control samples.
Bromodomain assays for Kd determination: T7 phage strains displaying bromodomains were grown in parallel in 24-well blocks in an E. coli host derived from the BL21 strain. E. coli were grown to log-phase and infected with T7 phage from a frozen stock (multiplicity of infection=0.4) and incubated with shaking at 32° C. until lysis (90-150 minutes). The lysates were centrifuged (5,000×g) and filtered (0.2 μm) to remove cell debris. […] Kds were determined using an 11-point 3-fold compound dilution series with one DMSO control point. […] The bromodomain concentration in the eluates was measured by qPCR.
Bromodomain assays for % Ctrl determination: T7 phage strains displaying bromodomains were grown in parallel in 24-well blocks in an E. coli host derived from the BL21 strain. […] The bromodomain concentration in the eluates was measured by qPCR.

T1 sequence (P25440 74-180 limits assumed): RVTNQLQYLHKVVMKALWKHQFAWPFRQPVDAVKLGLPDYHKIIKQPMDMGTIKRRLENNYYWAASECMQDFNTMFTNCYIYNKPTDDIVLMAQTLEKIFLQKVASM

SMILES	Kd (BRD2(1))	Kd (BRD2(2))	Kd (BRD3(1))	Kd (BRD3(2))	selectivity for certain bromodomains evaluated (bromodomains)
COc1ccc(S(=O)(=O)N2CCOCC2)cc1NC(=O)c1[nH]c(C)c2c1CCCCC2=O [Compound 13, N-(2-methoxy-5-(morpholinosulfonyl)phenyl)-3-methyl-4-oxo-2,4,5,6,7,8-hexahydrocyclohepta[c]pyrrole-1-carboxamide]	45 nM	290 nM	100 nM	140 nM	
Cc1[nH]c(-c2cc(N)ccc2Cl)c2c1C(=O)CCCC2 [Compound 23]	130 nM	200 nM	170 nM	330 nM	
CCCc1[nH]c(-c2cc(N)ccc2Cl)c2c1C(=O)CCCC2 [Compound 26, 1-(5-Amino-2-chlorophenyl)-3-propyl-5,6,7,8-tetrahydrocyclohepta[c]pyrrol-4(2H)-one]					higher selectivity for certain bromodomains
CCCCc1[nH]c(-c2cc(N)ccc2Cl)c2c1C(=O)CCCC2 [Compound 27, 1-(5-Amino-2-chlorophenyl)-3-butyl-5,6,7,8-tetrahydrocyclohepta[c]pyrrol-4(2H)-one]					higher selectivity for certain bromodomains
